Reference: patent publication US20260191889A1, “TREHALOSE FOR TREATING HUNTINGTON'S DISEASE” (GLD Debt Acquisition 2025-1, priority 2022, published 2026)

Columns and labels:
[1] = system: transgenic R6/2 mice (a disease model for Huntington's Disease); assay: Lifespan of R6/2 mice after treatment with MT; format: in vivo, Mus musculus; conditions: MT 5 g/kg i.p. 5 times per week from 4 weeks of age, vehicle 101, wild-type 181
Protocol: The objective of this study was to assess the effects of molecular trehalose (MT) in the R6/2 mouse model of Huntington's disease through intraperitoneal (IP) injections. Treated mice […] were administered (i.e. dosed) with a MT intraperitoneal (i.p.) injection. Mice were weighed twice per week until 8 weeks post infusion i.e., 12 weeks of age or followed until survival. At a minimum of 8 weeks post infusion or MT dosing, mice were sacrificed 30 minutes after last MT, and the following tissues were collected: blood, brain, and tail. Immunohistochemistry analysis for GFAP, Iba1, EM-47 and Darpp-32 were performed on brain hemisphere 1 samples and the amount of MT in blood and brain hemisphere 2 samples was determined.
Male R6/2 (B6CBA-Tg(HDexon1)62Gpb/3J) (The Jackson Laboratory, USA, JAX stock: 006494) mice (Mus musculus) between the ages of 28-33 days were used in this study. […]
Eleven male mice were treated with trehalose 5 g/kg (i.p. injection, 25 ml/kg, trehalose dose formulation concentration: 0.2 g/ml, with active trehalose corresponding to 5.252 g/kg of trehalose dihydrate), 5 times per week starting at 4 weeks of age. […] Mice were euthanized at 8 weeks after first trehalose dose (12 weeks of age, n=8). n=3 mice/group were monitored until survival. […]

[2] = system: Huntington's disease (HD); assay: Clinical scores of a subject with HD on weekly IV trehalose; format: in vivo, human
Protocol: This study consisted of a 2-week screening period, a 24-week open-label treatment period, and a 2-week safety follow-up period. Eligible subjects received substantially purified trehalose, administered as a once weekly IV infusion over 60 minutes±5 min for volumes≤600 mL or 90 minutes±5 min for volumes>600 mL. The total volume of the infusion was based on the weight of the subject and a dose of 0.75 g trehalose per kg of subject weight (g/kg). An additional 52 weeks of open-label trehalose treatment was planned for consenting subjects who were determined to be medically appropriate after their completion of the primary 24-week open-label treatment period. The primary study objectives were to determine safety and tolerability, and treatment responses associated with trehalose administered to subjects with HD. Safety and tolerability were determined by incidences of treatment-emergent adverse events (TEAEs) and serious adverse events ([…]), including clinically significant laboratory or diagnostic testing abnormalities. Laboratory samples, electrocardiograms (ECGs), and a rating on the Columbia Suicide Severity Rating Scale (C-SSRS) were obtained from the subject at the screening/baseline and during week 4, week 12, and week 24. Physical and neurological examinations of the subject were conducted at the screening/baseline and during week 12 and week 24. Vital signs and adverse events (AEs) of the subject were obtained at visits for study drug infusions and any unscheduled visits. In addition, AEs of the subject were obtained by scheduled or unscheduled telephone communications. Treatment responses were determined by assessments and comparative analyses of the following clinical scores that were obtained at the screening/baseline and follow-up study visits. All subjects completed the Patient Global Impression of Change (PGIC), the Clinical Global Impression of Change (CGIC), and the Clinical Global Impression of Severity (CGI-S) during week 4, week 8, week 12, week 18, and week 24. In addition, all participants completed the Patient's Global Impression of Severity (PGI-S), EQ Visual Analog Scale (EQ-VAS), and the CGI-S on day 1 and during week 4, week 8, week 12, week 18, and week 24. At the screening/baseline and during week 4, week 8, week 12, week 18, and week 24, subjects completed the UHDRS-TFC and the UHDRS-Independence Scale.

[3] = 3 months (12 weeks), 0.75 g/kg IV once weekly
[4] = after 3 months (12 weeks), 0.75 g/kg IV once weekly

Compound: OC[C@H]1O[C@H](O[C@H]2O[C@H](CO)[C@@H](O)[C@H](O)[C@H]2O)[C@H](O)[C@@H](O)[C@@H]1O [MT, trehalose]
- median lifespan [1]: 119 days
- CGI-S rating ([2]; 3 months (12 weeks)): A Little Better
- CGIC rating ([2]; 3 months (12 weeks)): A Little Better
- change in the UHDRS Functional Capacity [2, 3]: no change
- change in the UHDRS Independence Scale [2, 3]: no change
- Global impression of Health on a Visual Analog Scale [2, 4]: 90
- mini-mental status examination (MMSE) score [2, 4]: 27
- Global impression of Health on a Visual Analog Scale ([2]; baseline): 70
- mini-mental status examination (MMSE) score ([2]; baseline): 26
